According to PubChem BioAssay (NCI):
Several values for one entry are separate records, joined by “and”; a condition that tells them apart may be missing. Equal entries are not always repeated.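 Where inhibition never reached the appropriate level, the endpoint shown equals the highest concentration tested. Otherwise, values were interpolated linearly from a five-concentration, 48-hour dose response in 96-well plates. GI50: concentration for 50% inhibition of growth. TGI marks complete inhibition of growth.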

Assays:
Experiment in all cases: growth of human tumour cells (NCI), 48 h
[1] = system: NCI-H460 lung
[2] = system: LOX IMVI melanoma
[3] = system: SK-MEL-2 melanoma
[4] = system: OVCAR-5 ovarian
[5] = system: SK-OV-3 ovarian
[6] = system: EKVX NSCLC
[7] = system: SNB-75 CNS
[8] = system: A498 renal
[9] = system: TK-10 renal
[10] = system: T-47D breast

| Structure (SMILES) | TGI [1] | TGI [2] | TGI [3] | TGI [4] | TGI [5] | TGI [6] | TGI [7] | TGI [8] | TGI [9] | TGI [10] | GI50 [1] | GI50 [2] | GI50 [3] | GI50 [4] | GI50 [9] | GI50 [10] | GI50 [5] | GI50 [6] | GI50 [7] | GI50 [8] |
| --- | --- | --- | --- | --- | --- | --- | --- | --- | --- | --- | --- | --- | --- | --- | --- | --- | --- | --- | --- | --- |
| COC(=O)[C@]1(c2ccc(N(C)C)cc2OC)C[C@@H]2CCCN(CCc3c1[nH]c1ccccc31)C2 | 33.7 µM | > 62.3 µM | 36.2 µM | > 100 µM | > 61.4 µM | 52 µM | 22.3 µM | 47 µM | – | – | – | – | – | – | – | – | – | – | – | – |
| CCCOP(=O)(OCCC)OC(C(F)(F)F)C(F)(F)F | > 100 µM | > 100 µM | > 100 µM | > 100 µM | > 100 µM | > 100 µM | > 100 µM | > 100 µM | > 100 µM | > 100 µM | – | – | – | – | – | – | – | – | – | – |
| COC(=O)CNC(=O)CCC(C)[C@H]1CCC2C3C(C[C@H](OC(C)=O)[C@@]21C)[C@@]1(C)CCC2(C[C@H]1C[C@H]3OC(C)=O)OOC1(CC[C@]3(C)C4C[C@H](OC(C)=O)[C@@]5(C)C(CC[C@@H]5C(C)CCC(=O)NCC(=O)OC)C4[C@H](OC(C)=O)C[C@@H]3C1)OO2 (stereo partly specified) | 26.4 µM | – | 1.66 µM | 9.96 µM | 13.9 µM | 1.78 µM | 5.17 µM | 39.8 µM | 2.55 µM | 22.4 µM | – | – | – | – | – | – | – | – | – | – |
| COc1cc2cc(C(=O)N3CC(CCl)c4ccc(N(C)C)cc43)[nH]c2c(OC)c1OC (stereo unspecified) | 7.01 µM | 0.289 µM | 0.128 µM | 0.259 µM | 1.54 µM | 0.558 µM | – | – | > 100 µM | 0.378 µM | – | – | – | – | – | – | – | – | – | – |
| CN1Cc2cc(O)c(O)cc2C(O)C1 (stereo unspecified) | > 100 µM | > 100 µM | > 100 µM | > 100 µM | > 100 µM | > 100 µM | > 100 µM | – | > 100 µM | > 100 µM | – | – | – | – | – | – | – | – | – | – |
| CCOc1ccc(C(C)c2cc3c(cc2OC)OCO3)cc1 (stereo unspecified) | > 100 µM | > 100 µM | – | > 100 µM | > 100 µM | – | – | – | > 100 µM | – | – | – | – | – | – | – | – | – | – | – |
| CC(C)C(=O)/C=C/S/C=C/C(=O)C(C)C | > 100 µM | 11.1 µM | > 100 µM | 22.1 µM | > 100 µM | 90.9 µM | > 100 µM | – | > 100 µM | 65.7 µM | – | – | – | – | – | – | – | – | – | – |
| CC(C(=O)c1ccncc1)c1ccccn1 (stereo unspecified) | > 100 µM | > 100 µM | > 100 µM | > 100 µM | > 100 µM | > 100 µM | – | > 100 µM | > 100 µM | > 100 µM | – | – | – | – | – | – | – | – | – | – |
| S=c1nc(N/N=C/c2cccs2)c2cn[nH]c2[nH]1 | 13.1 µM | 74.6 µM | > 100 µM | 49.5 µM | > 100 µM | > 100 µM | > 100 µM | > 100 µM | 49.3 µM | > 100 µM | – | – | – | – | – | – | – | – | – | – |
| O=P(Nc1ccccc1)(Oc1ccccc1)N(CCCl)CCCl (stereo unspecified) | – | – | > 100 µM | > 100 µM | 44.2 µM | > 100 µM | > 100 µM | > 100 µM | > 100 µM | – | – | – | – | – | – | – | – | – | – | – |
| Cc1ccc(N=Nc2c(O)ccc3cc(S(=O)(=O)O)ccc23)cc1 | > 100 µM | > 100 µM and 38.2 µM | > 100 µM | > 100 µM | > 100 µM | > 100 µM | > 100 µM | > 100 µM | > 100 µM | > 100 µM | – | – | – | – | – | – | – | – | – | – |
| Cc1cc(OCCOCCC(F)(F)P(=O)(O)O)ccc1CCc1cnc2c(N)nc3cc(CCC(=O)O)ccc3c2c1 | > 100 µM | > 100 µM | > 100 µM | > 100 µM | > 100 µM | > 100 µM | > 100 µM | > 100 µM | > 100 µM | > 100 µM | > 100 µM | > 100 µM | > 100 µM | > 100 µM | > 100 µM | > 100 µM | > 100 µM | > 100 µM | 14 µM | 26.2 µM |
| CCCCCCCCCCCCCC[n+]1ccc(C(N)=O)cc1 | 8.18 µM | – | – | 4.12 µM | 10.9 µM | 6.71 µM | 4.17 µM | 21.5 µM | 2.79 µM | 14 µM | 2.58 µM | – | – | 1.2 µM | 1.18 µM | 3.13 µM | 2.33 µM | 1.98 µM | 1.7 µM | 3.07 µM |
| COc1cc2c(cc1Oc1c(Oc3c(O)c(OC)cc4c3C(CC(C)C)N(C)CC4)c(OC)cc3c1C(CC(C)C)N(C)CC3)C(CC(C)C)N(C)CC2 (stereo unspecified) | 1.69 µM | 5.52 µM | 3.67 µM | 17.7 µM | 11.8 µM | 2.18 µM | 3.01 µM | 0.304 µM | – | – | – | – | – | – | – | – | – | – | – | – |
| C=CC(C)C1(CCCOCc2ccccc2)C(=S)N2CCC3(CC24CCCC14)OCCO3 (stereo unspecified) | > 100 µM | > 100 µM | > 100 µM | > 100 µM | > 100 µM | > 100 µM | 5.82 µM | > 100 µM | > 100 µM | – | – | – | – | – | – | – | – | – | – | – |
| CNC(=O)SCC(NC(=O)CCC(N)C(=O)O)C(=O)NCC(=O)O (stereo unspecified) | > 100 µM | > 100 µM | > 100 µM | > 100 µM | > 100 µM | > 100 µM | > 100 µM | > 100 µM | – | – | – | – | – | – | – | – | – | – | – | – |
| O=C(O)/C(=C\c1ccc(O)cc1)c1cccc2ccccc12 | > 100 µM | > 100 µM | > 100 µM | > 100 µM | – | > 100 µM | > 100 µM | > 100 µM | > 100 µM | > 100 µM | – | – | – | – | – | – | – | – | – | – |
| COC1=CC(=O)C=C(OC)C1=O | 57.1 µM | 13.1 µM | 17.7 µM | 52.2 µM | 40.3 µM | 13 µM | 55.9 µM | 3.39 µM | – | – | – | – | – | – | – | – | – | – | – | – |
| COC1=C(C)C(=O)C2=C(C1=O)C1C3CC4=C(C(=O)C(OC)=C(C)C4=O)C(CNC(=O)C(C)O)N3C(C#N)C(C2)N1C (stereo unspecified) | 0.179 µM | 0.0263 µM | < 0.01 µM | 0.0888 µM | 1.2 µM | 0.108 µM | 0.0171 µM | – | 0.579 µM | < 0.01 µM | – | – | – | – | – | – | – | – | – | – |
